Consider 19 compounds from patent US20230295103A1 (priority 2020, published 2023).

For data set [1], the system named is human liver cell line HepG2 (ATCC HB-8065).
Data set [2] has as its system E. coli (ATCC 8739), B. subtilis (ATCC 6633), P. aeruginosa (ATCC 9027), S. aureus (ATCC 6538P), H. pylori (ATCC43504), C. albicans (ATCC 200498). The format is cell-based.
Data set [3] deals with B. pseudomallei. Put plainly: microbe, parasite or virus in culture. The format is cell-based. The settings on record: Burkholderia pseudomallei, read-out: Minimal Inhibitory Concentration (MIC).
Data set [4] concerns human cells A498, BEAS-2B, Caco-2, HaCaT, HepG2, HUVEC, IMR90, N87.
The subject of data set [5] is large panel of bacteria including Gram+ and Gram- bacteria and Mycobacterium as well as fungi associated to plant infection. It counts as cell-based.
In data set [6] the test system is B. mallei. Put plainly: microbe, parasite or virus in culture. It counts as cell-based. The settings on record: Burkholderia mallei, read-out: Minimal Inhibitory Concentration (MIC).
Data set [7] relates to B. cepacia. Put plainly: microbe, parasite or virus in culture. It counts as cell-based. The settings on record: Burkholderia cepacia, read-out: Minimal Inhibitory Concentration (MIC).
In data set [8] the test system is Pseudomonas syringae (DSM 10604). Put plainly: microbe, parasite or virus in culture. It counts as cell-based. The settings on record: DSM10604, read-out: Minimal Inhibitory Concentration (MIC).
Data set [9] relates to Streptomyces roietensis (DSM 101729). Put plainly: microbe, parasite or virus in culture. The format is cell-based. The settings on record: DSM101729, read-out: Minimal Inhibitory Concentration (MIC).
The subject of data set [10] is human liver cell line HepG2 (ATCC HB-8065). Put plainly: cells. The settings on record: HepG2, 48 h, read-out: IC50 on the viability of HepG2 cells.
Data set [11] concerns Phoma medicaginis. The settings on record: cited from earlier work.
The test system of data set [12] is Erwina cacticida. The settings on record: cited from earlier work.
Data set [13] relates to P. aeruginosa (ATCC 9027). It counts as cell-based, Pseudomonas aeruginosa.

pIC50: −log10 of the molar value. Values after ≈ are worked out from the molar mass of the structure shown.

For `O=C(O)c1ccc2c(c1)C(=O)/C(=C/c1ccc(OCc3ccccc3)c(OCc3ccccc3)c1)O2` [MR1065, (Z)-2-(3,4-bis(benzyloxy)benzylidene)-3-oxo-2,3-dihydrobenzofuran-5-carboxylic acid], in data set [1], the “Therapeutic index (TI) or safe factor (SF)” value (shortened to “Therapeutic index”) is 712.82.
With `O=C1/C(=C/c2ccc(OCc3ccccc3)cc2OCc2ccccc2)Oc2ccccc21` [C12, (Z)-2-(2,4-bis(benzyloxy)benzylidene)benzofuran-3(2H)-one], the “antimicrobial activity on tested strains (ranking)” value (shortened to “antimicrobial activity … (ranking)”) in data set [2] is “the more active”. Moreover, the MIC was 1.5 to 12.5 µM (≈ 0.652 to 5.43 µg/mL) in data set [3], 1.5 to 12.5 µM (≈ 0.652 to 5.43 µg/mL) in data set [6] and 3.12 to 12.5 µM (≈ 1.36 to 5.43 µg/mL) in [7]. Besides, the “Therapeutic index” value in data set [4] was 38-4017. Moreover, the “mean of TI/SF” value in [4] turned out to be 1169. In data set [5], the “antimicrobial activity, spectrum” value is recorded as “confirmed the activity”.
`CC(=O)Nc1ccc2c(c1)C(=O)/C(=C/c1ccc(C(=O)O)cc1)O2` [C4, (Z)-4-((5-acetamido-3-oxobenzofuran-2(3H)-ylidene)methyl)benzoic acid]: the MIC in data set [3] and in [6] was 1.5 to 12.5 µM (≈ 0.485 to 4.04 µg/mL) throughout.
Take `CC(=O)Nc1ccc2c(c1)C(=O)/C(=C/c1cccc(OCc3ccccc3)c1)O2` [A7, (Z)-N-(2-(3-(benzyloxy)benzylidene)-3-oxo-2,3-dihydrobenzofuran-5-yl)acetamide]: the “antimicrobial activity … (ranking)” value in [2] was “the more active”. Moreover, the MIC in data set [8] is 1.5 to 3.12 µM (≈ 0.578 to 1.2 µg/mL); in data set [3], 1.5 to 12.5 µM (≈ 0.578 to 4.82 µg/mL); in data set [9], 6.25 to 12.5 µM (≈ 2.41 to 4.82 µg/mL); in data set [6], 1.5 to 12.5 µM (≈ 0.578 to 4.82 µg/mL); in data set [7] it was 3.12 to 12.5 µM (≈ 1.2 to 4.82 µg/mL). Also, the “Therapeutic index” value in [4] is reported as 38-4017. Also, in data set [4], the “mean of TI/SF” value was 370. In [5], the “antimicrobial activity, spectrum” value is on record as “confirmed the activity”.
As usually defined, the pIC50 is the IC50 on a negative log10 scale, so that one unit is a factor of ten. Take `COc1cccc(/C=C2\Oc3ccc(C(=O)O)cc3C2=O)c1` [AD-1-61, (2Z)-2-(3-methoxybenzylidene)-3-oxo-2,3-dihydro-1-benzofuran-5-carboxylic acid]: the pIC50 in data set [10] is less than 3.60.
Consider `COc1c(C)c(O)c(C)c2c1C(=O)/C(=C/c1ccccc1)O2` [C10, (Z)-2-benzylidene-6-hydroxy-4-methoxy-5,7-dimethylbenzofuran-3(2H)-one], for which the MIC in [3] and in data set [6] was 1.5 to 12.5 µM (≈ 0.444 to 3.7 µg/mL) each time.
As to `CN(C)c1ccc(/C=C2\Oc3ccc(C(=O)O)cc3C2=O)cc1` [AD-1-62, (2Z)-2-[4-(dimethylamino)benzylidene]-3-oxo-2,3-dihydro-1-benzofuran-5-carboxylic acid], the pIC50 in data set [10] is less than 3.60.
On to hispidol, for which the “inhibition of fungal pathogen” value in data set [11] is “inhibit”.
By melting point is commonly meant the temperature, or range, at which the solid turns liquid. As to `COc1cc(/C=C2\Oc3ccc(NC(C)=O)cc3C2=O)cc(OC)c1OC` [D1, (Z)-N-(3-oxo-2-(3,4,5-trimethoxybenzylidene)-2,3-dihydrobenzofuran-5-yl)acetamide], the melting point was 254 °C. Moreover, in data set [3], the MIC was in the range of 1.5 to 12.5 µM (≈ 0.554 to 4.62 µg/mL). Also, in [6], the MIC lay in the range of 1.5 to 12.5 µM (≈ 0.554 to 4.62 µg/mL). Moreover, in data set [7], the MIC lay in the range of 3.12 to 12.5 µM (≈ 1.15 to 4.62 µg/mL).
Consider `O=C1/C(=C/c2ccc(Oc3ccc4oc(-c5ccccc5)cc(=O)c4c3)cc2)Oc2ccccc21` [E5, (Z)-6-(4-((3-oxobenzofuran-2(3H)-ylidene)methyl)phenoxy)-2-phenyl-4H-chromen-4-one], for which the “antimicrobial activity … (ranking)” value in [2] is given as “the more active”. In addition, the MIC in data set [8] was in the range of 1.5 to 3.12 µM (≈ 0.688 to 1.43 µg/mL). In data set [9], the MIC lay in the range of 6.25 to 12.5 µM (≈ 2.87 to 5.73 µg/mL). In [4], the “Therapeutic index” value is recorded as 38-4017 and the “mean of TI/SF” value came out at 852. Besides, in [5], the “antimicrobial activity, spectrum” value is reported as “confirmed the activity”.
For `Nc1ccc2c(c1)C(=O)/C(=C/c1cccc(Oc3ccccc3)c1)O2` [B1, (Z)-5-amino-2-(3-phenoxybenzylidene)benzofuran-3(2H)-one], the MIC in data set [8] was in the range of 1.5 to 3.12 µM (≈ 0.494 to 1.03 µg/mL); in [3], 1.5 to 12.5 µM (≈ 0.494 to 4.12 µg/mL); in [9] it was 6.25 to 12.5 µM (≈ 2.06 to 4.12 µg/mL); in [6], 1.5 to 12.5 µM (≈ 0.494 to 4.12 µg/mL); in [7] it was 3.12 to 12.5 µM (≈ 1.03 to 4.12 µg/mL).
Regarding cephalocerone, the growth inhibition entry in data set [12] is “inhibit the growth”.
For the compound `O=C(O)CCCCCOc1ccc(/C=C2\Oc3ccccc3C2=O)cc1` [MR1076, (Z)-6-(4-((3-oxobenzofuran-2(3H)-ylidene)methyl)phenoxy)hexanoic acid], the antimicrobial activity result in [13] is “active”. In [10], the pIC50 was less than 3.60.
Turning to `CC(=O)Nc1ccc2c(c1)C(=O)/C(=C/c1ccccc1)O2`, the melting point is 241 °C.
For `CC(=O)Nc1ccc2c(c1)C(=O)/C(=C/c1ccc(OC(C)C)cc1)O2` [B5, (Z)-N-(2-(4-isopropoxybenzylidene)-3-oxo-2,3-dihydrobenzofuran-5-yl)acetamide], in data set [2], the “antimicrobial activity … (ranking)” value is listed as “the more active”. Also, the MIC lay in the range of 1.5 to 3.12 µM (≈ 0.506 to 1.05 µg/mL) in data set [8]; 1.5 to 12.5 µM (≈ 0.506 to 4.22 µg/mL) in data set [3]; 6.25 to 12.5 µM (≈ 2.11 to 4.22 µg/mL) in [9]; 1.5 to 12.5 µM (≈ 0.506 to 4.22 µg/mL) in [6]; 3.12 to 12.5 µM (≈ 1.05 to 4.22 µg/mL) in [7]. In data set [4], the “Therapeutic index” value is 38-4017. In addition, the “mean of TI/SF” value in data set [4] was 103. For the same compound, the “antimicrobial activity, spectrum” value in [5] is “confirmed the activity”.
On to `COc1ccc(/C=C2\Oc3ccccc3C2=O)cc1` [D10, (Z)-2-(4-methoxybenzylidene)benzofuran-3(2H)-one], for which the MIC was 1.5 to 3.12 µM (≈ 0.378 to 0.787 µg/mL) in data set [8]; 1.5 to 12.5 µM (≈ 0.378 to 3.15 µg/mL) in data set [3]; 6.25 to 12.5 µM (≈ 1.58 to 3.15 µg/mL) in [9]; 1.5 to 12.5 µM (≈ 0.378 to 3.15 µg/mL) in data set [6]; 3.12 to 12.5 µM (≈ 0.787 to 3.15 µg/mL) in data set [7].
With `CC(=O)Nc1ccc2c(c1)C(=O)/C(=C/c1ccc(OCc3ccccc3)c(OCc3ccccc3)c1)O2` [AD-1-49, (Z)-N-(2-(3,4-bis(benzyloxy)benzylidene)-3-oxo-2,3-dihydrobenzofuran-5-yl)acetamide], the pIC50 in data set [10] was less than 3.60.
In the case of `COc1ccc(/C=C2\Oc3cc(N)ccc3C2=O)cc1` [C11, (Z)-6-amino-2-(4-methoxybenzylidene)benzofuran-3(2H)-one], in data set [2], the “antimicrobial activity … (ranking)” value is “the more active”. The MIC in [8] was in the range of 1.5 to 3.12 µM (≈ 0.401 to 0.834 µg/mL); in data set [3], 1.5 to 12.5 µM (≈ 0.401 to 3.34 µg/mL); in data set [9] it was 6.25 to 12.5 µM (≈ 1.67 to 3.34 µg/mL); in data set [6] it was 1.5 to 12.5 µM (≈ 0.401 to 3.34 µg/mL); in data set [7], 3.12 to 12.5 µM (≈ 0.834 to 3.34 µg/mL). For the same compound, the “Therapeutic index” value in data set [4] is given as 38-4017. In addition, the “mean of TI/SF” value in data set [4] is given as 355. Moreover, the “antimicrobial activity, spectrum” value in [5] is given as “confirmed the activity”.
For the compound hispidol-4′-O-β-D-glucoside, the “inhibition of fungal pathogen” value in data set [11] is “inhibit”.
